According to patent publication US20060089335A1, “Compositions and methods for enhancing cognitive function and synaptic plasticity” (priority 2003, published 2006):
Where “and” joins values, the source holds several entries; their conditions need not be identical. Equal values may be shown once. Entries after “also recorded” stand apart in the source; their conditions may differ.

Assays:
[1] = test system: postsynaptic locations of cultured hippocampal neurons; assay: postsynaptic evoked current response to iontophoretic glutamate (AMPA-R insertion); assay type: cell-based, rat
Text: These were generally as described in the preceding examples. Glutamatergic iontophoresis was perfomed as described [Murnick 2000].
Since we wished to correlate the above pre-synaptic findings to the plasticity of single or small clusters of postsynaptic locations, this ruled out traditional double-patch plasticity experiments in which heterogeneous populations of connections are studied. Such studies also usually confound pre-synaptic and postsynaptic effects. For this purpose, we developed a technique of high-temporal and spatial resolution glutamatergic iontophoresis that allows us to stimulate single or small clusters of postsynaptic locations (resolution ˜2 μm, 1 ms; [Murnick 2000]).
To determine whether a decrease in overall activity of a neural network leads to increased plasticity (i.e., an increase in synaptic strength in response to a pattern of stimulation) of postsynaptic locations, we assessed the effect of treatment with Mg^++ on the ability of postsynaptic locations to respond to glutamate. As described above, Mg^++ blocks the NMDA receptor channel at resting membrane potential, so Mg^++ treatment reduces the overall activity level of the neural network. As also described above, increases in postsynaptic intracellular Ca^++ stimulated by activation of NMDA receptors leads to recruitment of AMPA receptors and their insertion into the postsynaptic membrane. […]

[2] = test system: GluR1; assay: quantitative Western blotting of hippocampal homogenate; assay type: in vivo, rat; conditions: rat, in vivo, 6 mg/kg/day
Experimental: (§1) Quantitative Western blotting. Samples of hippocampal homogenate (10 ug/sample) were resolved on polyacrylamide gels, transferred to PVDF, and probed with anti-NR1 (Chemicon), NR2A (Upstate) or NR2B (Santa Cruz Biotech), GluR1 (Chemicon), Synapsin1 (American Qualex), or PSD-95 (Upstate) antibody followed by the appropriate secondary antibody coupled to horseradish peroxidase (1:10,000, Santa Cruz Biotech) in Tris-buffered saline (pH 7.3) containing 5% dry milk and 0.1% Tween (BioRad). Visualization of immunoreactive bands was achieved by enhanced chemiluminescence (Perkin Elmer Biosciences) and captured on autoradiography film (Kodak Scientific). Standard curves, in which the amount of protein was varied systematically, were constructed to establish that we operated within the linear range of the chemiluminescence detection method. In addition, each immunoblot was exposed to autoradiography film multiple times (average 7; minimum 5) for varying duration to make sure we operated in the linear range of the film for each experiment. Digital images, produced by scanning films on a Epson 3200 Scanner (Epson) with Epson Scan Software (Epson), were quantified using GelPro Analyzer 3.1 software. The integrated optical density (IOD) of each immunoreactive band from hippocampal samples relative to baseline measured immediately above and below the band in the same lane, and normalized by the actin or neurofilament band also in the same lane. Group data (eight animals per group) are represented as the mean+/−SEM of the IOD of samples.

[3] = test system: NR2B; assay: as above; assay type: in vivo, rat; conditions: rat, in vivo
Experimental: as §1

[4] = test system: recognition memory of 1-year old rats; assay: novel object recognition; conditions: rat, in vivo
Experimental: Behavior test: Novel object recognition. The subjects were 20 experimentally naive, female, Sprague-Dawley rats (Charles River), 1 year old at the beginning of the experiment. They were housed two per cage with continuous access to food and water under a 12:12 light-dark cycle, with light onset at 8:00 a.m. Rats in the Mg^++-treated group received drinking water containing 6 mg/kg/day MgCl2 for 4 months before experiments.
The rats were first habituated to the open-field arena by allowing them to explore it for two daily 15-min sessions. Two identical objects were present in the arenas during habituation sessions; those objects were not used in the subsequent experimental trials. The rat was placed into the arena with two identical sample objects and allowed to explore for 10 min (familiarization phase). For the double-training test, the familiarization phase was repeated with the interval of 10 min. The rat was then removed and the objects were replaced with two new objects; one of the new objects was identical to the sample and the other was a novel object that the rat had never before encountered. The rat was returned to the arena for the retention test and allowed to explore for 5 min (retention test). The retention intervals were 10 min and 24 hours. Rats spent the retention interval in a cage in the colony room. Objects were cleaned thoroughly between trials with 20% ethanol solution to ensure the absence of olfactory cues. The particular objects for a given trial were randomly determined, but each object was used for only one trial per rat.
The criteria for exploration were strictly based on active exploration, in which rats had to be sniffing or touching the object with the nose and/or forepaws. The main dependent measure was the exploration ratio, that is, the proportion of total object-exploration that was spent exploring the novel object (tnovel/[tnovel+tfamiliar]) during the 5-min test phase. To determine whether the rats discriminated between the novel and familiar objects, the exploration ratios obtained under each condition were compared with what would be expected by chance (i.e., a ratio of ˜50%), using one-sample Student's t tests.

[5] = test system: excitatory and inhibitory terminals
[6] = test system: NMDA receptors at single spine; assay: calcium imaging and NMDA currents at single spines; assay type: cell-based, rat
[7] = test system: presynaptic terminals of cultured hippocampal neurons; assay: TBS-induced presynaptic plasticity measured by FM 1-43 dye uptake in hippocampal cultures; assay type: cell-based, rat

[Mg+2] [Mg^++]
postsynaptic evoked current response to glutamate (AMPA-R insertion) [1]: showed significant levels of AMPA-R insertion; also recorded: increased current amplitude over time | increase in amount of GluR1 [2]: approximately 60% | increase in levels of NR2B protein [3]: two-fold increase | increase in amount of NR2B ([3]; 6 mg/kg/day): approximately 60% | effect on exploratory activity or motivation [4]: no effect on exploratory activity or motivation | exploratory preference towards the novel object, short-term and long-term memory trials [4]: significant exploratory preference towards the novel object | preference to the novel object, long-term [4]: 60% | preference to the novel object, short-term memory test [4]: 75% | preference towards the novel object, long-term memory test [4]: retained the same level of preference for 24 hours; also recorded: significant exploratory preference towards the novel object in long-term memory trials | total time exploring both identical objects during training [4]: 24.1 ± 2.5 s | increase of synaptic density [5]: ~30% | neuronal density and morphology [5]: normal neuronal density and morphology | reduction of Ca^2+ influx (ΔF/F) [6]: 57±5% and 54±7% | reduction of NMDA currents (EPSCNMDA amplitude) [6]: 54±7% and 57±5% | F2/F1 [7]: 2.3±0.1 | N2/N1 [7]: 2.1±0.1 | Pr increase after TBS [7]: 2.3 fold | enhancement of synaptic plasticity [7]: ~2 fold | increase in number of detectable FM puncta after TBS [7]: 2.1 fold | increase in total presynaptic strength after TBS [7]: 5.5 fold | increase in total presynaptic strength after induction [7]: 3.9 fold | increase of plasticity of presynaptic terminals (S2/S1) [7]: 2.4 fold | increase of synaptic strength at optimum concentration [7]: up to approximately five-fold | optimal concentration for plasticity (maximal potentiability) [7]: 1.2 mM | plasticity of presynaptic terminals after partial block of Ca flux [7]: significant increases of plasticity | plasticity under long term treatments [7]: retain high plasticity persistently | time for which potentiation was stable [7]: at least 1.5 hours
